Key:
male C57BL mice = assay: Antianxiety effect by mouse light/dark box test; type: in vivo; conditions: sc, 30 minutes before test, 5 min observation, N 7
Experimental: (1) The method of Belzung C., Misslin R., and Vogel E. (Reference: Behavioural effects of the benzodiazepine receptor partial agonist RO16-6028 in mice, Psychopharmacology, 97, 388-391, 1989) was modified. The present mouse light/dark box test was carried out according to such a modified method. As a test device used in this test, a lidded black acryl box (dark box, 15×10×20 cm) was connected to a lidless white acryl box (light box, 15×20×20 cm) using a black-acryl tunnel (10×7×4.5 cm), so as to prepare a light/dark box in which a mouse can freely move between the dark box and the light box. In this test device, in order to observe the behavior of the mouse, the anterior surface (20×20 cm) and back surface (20×20 cm) of the light box were made from transparent acryl. The illumination was set to provide in an illuminance of 150 Lux on the floor of the light box. Thereafter, each of male C57BL mice (20-35 g) was placed in the dark box, and the test was started. In this test, a test substance was subcutaneously administered to the test animal 30 minutes before the initiation of the test.
A state where the 4 legs of the mouse were contacted with on the floor of the light box was defined as stay at a light place, and the time when the mouse stayed at a light place was measured. The obtained time was used as an index of antianxiety action.

Sprague-Dawley male rats = assay: Effect of controlling memory disorder induced by 8-OH-DPAT in rats (8-arm radial maze); type: in vivo, rat; conditions: 0.3 mg/kg, s.c., 20 min before 8-OH-DPAT 0.5 mg/kg s.c.; Mean ± S.E., N 8
Text: (1) A Sprague-Dawley male rats (130-200 g) were bred in an individual cage and used in the present test. For appetite stimulation, the body weight of the rats was reduced to approximately 80% of the original weight by fasting. […] As a maze test, an elevated 8-arm radial maze (central platform diagonal length: 34 cm, arm length: 60 cm; arm width: 12 cm) was used. In order to allow the rats to remember the positions of baits placed on the arms, the rats were left on the platform of the maze in which baits had been placed on the tips of the 4 predetermined arms. Thereafter, the rats were left on the maze for a certain period of time or until it ate all the baits. This training was carried out 1 to 3 times a day. The rats that had sufficiently learned were subjected to the following experiment. A solvent or test substance was subcutaneously administered to the rats. Twenty minutes later, 0.5 mg/kg 8-OH-DPAT was subcutaneously administered thereto. Further, 20 minutes later, the same maze test as that in the training was carried out. A reference memory error was defined as an action to enter arms on which no baits had been placed, and a working memory error was defined as an action to enter again arms on which baits had previously been placed. Thus, the actions of the rat were recorded. In addition, the time required for the rat to take all the four baits was also recorded. […] (Reference:Yoshihiro Hiraga, “Effects of scopolamine upon delayed radial-arm maze performance in rats” Folia pharmacol. Japon. 97, 351-359 (1991)) The results are shown in Table 4.

serotonin 1A receptor = target: T1, serotonin 1A receptor (Mus musculus, UniProt Q64264); assay: Antagonistic effect on serotonin 1A receptor agonist (8-OH-DPAT)-induced hypothermia in mouse; type: in vivo; conditions: CD-1 (ICR) male mice; inhibition of hypothermia by 8-OH-DPAT 0.5 mg/kg sc; test substance 15 minutes before agonist
T1 construct: into the rectum of CD-1 (ICR) male mice (25-45 g); from tissue; host or cells: living CD-1 (ICR) male mice (in vivo)
T1 sequence (Q64264 1-421): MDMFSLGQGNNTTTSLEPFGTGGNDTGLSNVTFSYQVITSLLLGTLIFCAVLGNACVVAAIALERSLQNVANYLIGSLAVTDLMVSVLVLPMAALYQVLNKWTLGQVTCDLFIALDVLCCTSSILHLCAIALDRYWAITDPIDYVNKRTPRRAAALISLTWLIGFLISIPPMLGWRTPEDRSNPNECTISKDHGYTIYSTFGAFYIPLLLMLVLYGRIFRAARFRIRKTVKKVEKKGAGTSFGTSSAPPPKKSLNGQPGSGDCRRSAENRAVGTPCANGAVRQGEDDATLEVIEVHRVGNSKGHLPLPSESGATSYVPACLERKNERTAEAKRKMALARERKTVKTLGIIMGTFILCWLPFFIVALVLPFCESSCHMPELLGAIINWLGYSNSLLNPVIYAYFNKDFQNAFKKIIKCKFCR
Procedure, shortened: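 CD-1 (ICR) male mice, 25-45 g; rectal temperature by thermistor probe at about 2 cm depth. Test substance given 15 min before s.c. 8-OH-DPAT […]; antagonism scored as inhibition of the induced hypothermia.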

CNC(=O)c1ccc2ccn(C3CCN(CCc4c(OC)ccc5c4OC(C)(C)CC5=O)CC3)c2c1 [Compound 20, 1-{1-[2-(7-methoxy-2,2-dimethyl-4-oxochroman-8-yl)ethyl]piperidin-4-yl}-N-methyl-1H-indole-6-carboxamide]
Time of stay at light place (male C57BL mice; 0.03 mg/kg): 46 ± 9.4 s
Time of stay at light place (male C57BL mice; 0.1 mg/kg): 67 ± 19 s
Elapsed time (Sprague-Dawley male rats): 52 ± 9.9 s
Number of reference memory errors (Sprague-Dawley male rats): 1.50 ± 0.57
Number of working memory errors (Sprague-Dawley male rats): 0.25 ± 0.16
ED50 (serotonin 1A receptor): 0.03 mg/kg, sc
